Measurements taken from patent US20110201603A1, “Novel Acylaminobenzamide Derivatives” (Bayer CropScience AG, priority 2008, published 2011).

Experiments:
Assay type in all cases: in vivo
[1] = tested on: Lucilia cuprina larvae; test: Lucilia cuprina test; settings: application rate of 100 ppm; larvae on minced horse meat; after 2 days
Protocol: (§1) Solvent: dimethyl sulfoxide
To produce a suitable preparation of active compound, 10 mg of active compound are dissolved in 0.5 ml solvent, and the concentrate is diluted with water to the desired concentration. Approximately 20-30 (Lucilia cuprina larvae) are transferred into a test tube containing 1 cm^3 of minced horse meat and 0.5 ml aqueous dilution of test compound. After 2 days mortality in % is determined. 100% means that all the larvae have been killed; 0% means that none of the larvae have been killed.

[2] = tested on: tobacco cutworm (Spodoptera litura) larvae; test: Test against tobacco cutworm (Spodoptera litura) larvae, leaf dip; settings: active compound concentration of 100 ppm; third-instar larvae on sweet potato leaves; after 7 days
Outline: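 Sweet potato leaves dipped in compound diluted in water (DMF solvent, polyoxyethylene alkyl phenyl ether emulsifier), air-dried, and given to ten third-instar larvae per dish at 25 °C, with fresh leaves on days 2 and 4. Mortality (%) scored after 7 days, averaged over two dishes.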

[3] = tested on: cucurbit leaf beetle (Aulacophora femoralis); test: Test against cucurbit leaf beetle (Aulacophora femoralis), leaf dip; settings: active compound concentration of 100 ppm; second-instar larvae on cucumber leaves; after 7 days
Outline: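 Cucumber leaves dipped in compound solution (DMF solvent, polyoxyethylene alkyl phenyl ether emulsifier, water-diluted), air-dried, offered to five second-instar larvae on soil at 25° C. Mortality counted after 7 days, expressed as percent insecticidal activity.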

[4] = tested on: Musca domestica; test: Musca domestica test; settings: application rate of 100 ppm; adults, sugar sponge; after 2 days
Protocol: as §1
To produce a suitable preparation of active compound, 10 mg of active compound are dissolved in 0.5 ml solvent, and the concentrate is diluted with water to the desired concentration. Prior to the assay, a piece or kitchen sponge is soaked with a mixture of sugar and compound solution and placed into a container. 10 adults (Musca domestica) are placed into the container and closed with a perforated lid. After 2 days mortality in % is determined. 100% means that all the flies have been killed; 0% means that none of the flies have been killed.

[5] = tested on: Ctenocephalides felis; test: Ctenocephalides felis test (CTECFE), blood feeding; settings: application rate of 100 ppm in cattle blood; adult unfed fleas; after 2 days
Protocol: as §1
To produce a suitable preparation of active compound, 10 mg of active compound are dissolved in 0.5 ml solvent, and the concentrate is diluted with cattle blood to the desired concentration.
Approximately 10 to 15 adult unfed (Ctenocepahlides felis) are placed in flea chambers. The blood chamber, are sealed with paraffin on the bottom are filled with cattle blood supplied with compound solution and placed on top of the flea chamber, so that the fleas are able to suck the blood. The blood chamber is heated to 37° C. whereas the flea chamber is kept at room temperature. After 2 days mortality in % is determined. 100% means that all the fleas have been killed; 0% means that none of the fleas have been killed.

[6] = tested on: Boophilus microplus; test: Boophilus microplus test (injection); settings: application rate of 20 μg/animal; injection into adult engorged female ticks; after 7 days
Protocol: as §1
To produce a suitable preparation of active compound, 10 mg of active compound are dissolved in 0.5 ml solvent, and the concentrate is diluted with solvent to the desired concentration. Five adult engorged female ticks (Boophilus microplus) are injected with compound solution into the abdomen. Ticks are transferred into replica plates and incubated in a climate chamber for a period of time. Egg deposition of fertile eggs is monitored. After 7 days mortality in % is determined. 100% means that all eggs are infertile; 0% means that all eggs are fertile.

[7] = tested on: mustard beetle larvae (Phaedon cochleariae); test: Phaedon cochleariae test (PHAECO spray application); settings: application rate of 500 g/ha; Chinese cabbage leaf-disks; after 7 days
Protocol: Solvent: 78.0 parts by weight of acetone and 1.5 parts by weight of dimethylformamide
Emulsifier: 0.5 parts by weight of alkylaryl polyglycolether
To produce a suitable preparation of active compound, 1 part by weight of active compound is mixed with the stated amount of solvent and emulsifier, and the concentrate is diluted with emulsifier-containing water to the desired concentration. Chinese cabbage (Brassica pekinesis) leaf-disks are sprayed with a preparation of the active ingredient of the desired concentration. Once dry, the leaf disks are infested with mustard beetle larvae (Phaedon cochleariae). After 7 days mortality in % is determined. 100% means that all beetle larvae have been killed and 0% means that none of the beetle larvae have been killed.

Cc1cc(C(n2cc(C(F)(F)F)cn2)C(F)(F)C(F)(F)F)cc(C)c1NC(=O)c1cccc(NC(=O)c2cccnc2Cl)c1 (stereo not drawn) [2-104]
activity (mortality in %) [1]: 90% | insecticidal activity [2]: 100% | insecticidal activity [3]: 100% | activity (mortality in %) [4]: 80% | activity (mortality in %) [5]: 100%

CCc1cc(C(n2cc(C(F)(F)F)cn2)(C(F)(F)F)C(F)(F)F)cc(C)c1NC(=O)c1cccc(N)c1 [11-114]
activity (mortality in %; 100% means all eggs are infertile) [6]: 80%

Cc1cc(C(n2nc(C)c(Br)c2C)C(F)(F)F)cc(C)c1NC(=O)c1cccc([N+](=O)[O-])c1 (racemic) [11-143]
activity (mortality in %) [7]: 100%

Cc1cc(C(n2nc(C(F)(F)F)cc2C(F)(F)F)(C(F)(F)F)C(F)(F)F)cc(C)c1NC(=O)c1cccc(NC(=O)c2ccccc2F)c1 [2-124]
activity (mortality in %) [1]: 90% | insecticidal activity [2]: 100%
